Test results reported in patent US20260217672A1, “BENZAMIDE COMPOUNDS FOR TREATMENT OF BACTERIAL INFECTIONS” (Hoffmann-La Roche Inc., priority 2022, published 2026).
Values after ≈ are worked out from the molar mass of the structure shown. Read-outs that look alike come from different tables or passages of the source.

Tests used:
[1] = system: Escherichia coli ATCC 25922; assay: Minimal Inhibitory Concentration (MIC) broth dilution assay; assay type: cell-based; conditions: read-out: MIC Escherichia coli ATCC 25922
Outline: (§1)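 Broth dilution MIC in cation-adjusted Mueller Hinton broth, final inoculum 5×10^5 CFU/mL, serial 2-fold compound dilutions from DMSO stocks. Plates incubated 20 hours at 35° C. in ambient air; MIC read visually as lowest concentration inhibiting visible growth.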

[2] = system: Klebsiella pneumonia ATCC 43816; assay: as above; assay type: cell-based; conditions: Klebsiella pneumoniae, read-out: MIC Klebsiella pneumoniae ATCC43816
Outline: as §1

[3] = Human microsome stability assay; assay type: in vitro ADME; conditions: 1 μM test compound, 0.5 mg/mL liver microsomal protein, NADPH regenerating system, 37° C.; <7 low, 7-16.2 medium, >16.2 high
Method: The human microsomal stability assay is used for early assessment of metabolic stability of a test compound in human liver microsomes.
Human liver microsomes (Cat.NO.: 452117, Corning, USA) were pre-incubated with test compound for 10 minutes at 37° C. in 100 mM potassium phosphate buffer, pH 7.4. The reactions were initiated by adding NADPH regenerating system. The final incubation mixtures contained 1 μM test compound, 0.5 mg/mL liver microsomal protein, 1 mM MgCl2, 1 mM NADP, 1 unit/mL isocitric dehydrogenase and 6 mM isocitric acid in 100 mM potassium phosphate buffer, pH 7.4. After incubation times of 0, 3, 6, 9, 15 and 30 minutes at 37° C., 300 μL of cold acetonitrile (including internal standard) was added to 100 μL incubation mixture to terminate the reaction. Following precipitation and centrifugation, the amount of compound remaining in the samples were determined by LC-MS/MS. Controls of no NADPH regenerating system at zero and 30 minutes were also prepared and analyzed. […] (Human microsome clearance: <7 mL/min/kg (low); 7-16.2 mL/min/kg (medium); >16.2 mL/min/kg (high))

LPS synthesis pathway = conditions: Bioorganic Chemistry 102 (2020) 104055; cited from earlier work
[4] = system: efflux-deficient E. coli strains; conditions: Bioorganic Chemistry 102 (2020) 104055; cited from earlier work

Row | SMILES | MIC ([1]; ATCC25922, 20 h) [µg/mL] | MIC ([2]; ATCC43816, 20 h) [µg/mL] | Clearance of Human microsome [3] [mL/min/kg] | MIC ([1]; ATCC25922, broth dilution in CAMHB, 5×10^5 CFU/mL, 20 hours at 35° C.) [µg/mL] | MIC ([2]; ATCC43816, broth dilution in CAMHB, 5×10^5 CFU/mL, 20 hours at 35° C.) [µg/mL] | LPS synthesis pathway inhibition activity (LPS synthesis pathway) | antibiotic activity against efflux-deficient E. coli strains [4]
1 | NCCCNCc1ccc(C(=O)Nc2ccc(S(=O)(=O)N3CCN(c4cc(C(F)(F)F)cc(Cl)n4)CC3)cc2)cc1 [Example 001, 4-[(3-Aminopropylamino)methyl]-N-[4-[4-[6-chloro-4-(trifluoromethyl)-2-pyridyl]piperazin-1-yl]sulfonylphenyl]benzamide] | 0.51 (≈ 0.835 µM) | 1.5 (≈ 2.45 µM) | 6.2 | – | – | – | –
2 | NCCCNCc1ccc(C(=O)Nc2ccc(S(=O)(=O)N3CCN(c4nccc(C(F)(F)F)n4)CC3)cc2)cc1 [Example 012, 4-[(3-Aminopropylamino)methyl]-N-[4-[4-[4-(trifluoromethyl)pyrimidin-2-yl]piperazin-1-yl]sulfonylphenyl]benzamide] | 1.8 (≈ 3.12 µM) | 3.6 (≈ 6.23 µM) | 6.2 | – | – | – | –
3 | N#Cc1cc(Cl)nc(N2CCN(S(=O)(=O)c3ccc(NC(=O)c4cccc(CNCCCN)c4)cc3)CC2)c1 [Example 020, 3-[(3-Aminopropylamino)methyl]-N-[4-[4-(6-chloro-4-cyano-2-pyridyl)piperazin-1-yl]sulfonylphenyl]benzamide] | 1.2 (≈ 2.11 µM) | 2.5 (≈ 4.4 µM) | 8.8 | – | – | – | –
4 | O=C(c1cnn2cccnc12)N1CCc2cc(S(=O)(=O)N3CCN(c4cc(C(F)(F)F)cc(Cl)n4)CC3)ccc21 [Example 034, [5-[4-[6-Chloro-4-(trifluoromethyl)-2-pyridyl]piperazin-1-yl]sulfonylindolin-1-yl]-pyrazolo[1,5-a]pyrimidin-3-yl-methanone] | 0.92 (≈ 1.55 µM) | 0.92 (≈ 1.55 µM) | 6.2 | – | – | – | –
5 | O=C(C1=NOC2(CCCNC2)C1)N1CCc2cc(S(=O)(=O)N3CCN(c4cc(C(F)(F)F)cc(Cl)n4)CC3)ccc21 (centres unmarked) [Example 039] | – | – | 9.4 | – | – | – | –
6 | O=C(CNCCO)N1CCc2cc(S(=O)(=O)N3CCN(c4cc(C(F)(F)F)cc(Cl)n4)CC3)ccc21 [Example 041, 1-[5-[4-[6-Chloro-4-(trifluoromethyl)-2-pyridyl]piperazin-1-yl]sulfonylindolin-1-yl]-2-(2-hydroxyethylamino)ethanone] | 1 (≈ 1.82 µM) | 8.3 (≈ 15.1 µM) | 6.2 | – | – | – | –
7 | CC(=O)Oc1ccc(C(=O)N2CCc3cc(S(=O)(=O)N4CCN(c5cc(C(F)(F)F)cc(Cl)n5)CC4)ccc32)cc1OC(C)=O [Example 043, [2-Acetoxy-4-[5-[4-[6-chloro-4-(trifluoromethyl)-2-pyridyl]piperazin-1-yl]sulfonylindoline-1-carbonyl]phenyl]acetate] | 4.2 (≈ 6.3 µM) | 2.1 (≈ 3.15 µM) | 6.2 | – | – | – | –
8 | NCCCN1CCN(c2cccc(C(=O)Nc3ccc(S(=O)(=O)N4CCN(c5cc(C(F)(F)F)cc(Cl)n5)CC4)cc3)c2)CC1 [Example 068, 3-[4-(3-Aminopropyl)piperazin-1-yl]-N-[4-[4-[6-chloro-4-(trifluoromethyl)-2-pyridyl]piperazin-1-yl]sulfonylphenyl]benzamide] | 1 (≈ 1.5 µM) | 2.1 (≈ 3.15 µM) | 6.2 | – | – | – | –
9 | O=C(Nc1ccc(S(=O)(=O)N2CCN(c3cc(C(F)(F)F)cc(Cl)n3)CC2)cc1)c1ccc(CCN2C3CNCC2C3)cc1 [Example 075, N-[4-[4-[6-chloro-4-(trifluoromethyl)-2-pyridyl]piperazin-1-yl]sulfonylphenyl]-4-[2-(3,6-diazabicyclo[3.1.1]heptan-6-yl)ethyl]benzamide] | – | – | – | 2.7 (≈ 4.16 µM) | 5.5 (≈ 8.47 µM) | – | –
10 | O=C(Nc1ccc(S(=O)(=O)N2CCN(c3cc(C(F)(F)F)cc(Cl)n3)CC2)cc1)c1cccc(CNCC2CCNCC2)c1 [Example 076, N-[4-[4-[6-chloro-4-(trifluoromethyl)-2-pyridyl]piperazin-1-yl]sulfonylphenyl]-3-[(4-piperidylmethylamino)methyl]benzamide] | 0.69 (≈ 1.06 µM) | 2.7 (≈ 4.15 µM) | – | – | – | – | –
11 | NC1CC(CNCc2cccc(C(=O)Nc3ccc(S(=O)(=O)N4CCN(c5cc(C(F)(F)F)cc(Cl)n5)CC4)cc3)c2)C1 (centres unmarked) [Example 077, 3-[[(3-Aminocyclobutyl)methylamino]methyl]-N-[4-[4-[6-chloro-4-(trifluoromethyl)-2-pyridyl]piperazin-1-yl]sulfonylphenyl]benzamide] | 0.68 (≈ 1.07 µM) | 2.7 (≈ 4.24 µM) | – | – | – | – | –
12 | O=C(Nc1ccc(S(=O)(=O)N2CCN(c3cc(C(F)(F)F)cc(Cl)n3)CC2)cc1)c1cccc(CNCCCN2CCNCC2)c1 [Example 078, N-[4-[4-[6-chloro-4-(trifluoromethyl)-2-pyridyl]piperazin-1-yl]sulfonylphenyl]-3-[(3-piperazin-1-ylpropylamino)methyl]benzamide] | 1.4 (≈ 2.06 µM) | 5.7 (≈ 8.38 µM) | 6.2 | – | – | – | –
13 | NC1(C2CCN(Cc3cccc(C(=O)Nc4ccc(S(=O)(=O)N5CCN(c6cc(C(F)(F)F)cc(Cl)n6)CC5)cc4)c3)C2)CC1 (centres unmarked) [Example 079, 3-[[3-(1-Aminocyclopropyl)pyrrolidin-1-yl]methyl]-N-[4-[4-[6-chloro-4-(trifluoromethyl)-2-pyridyl]piperazin-1-yl]sulfonylphenyl]benzamide] | 1.1 (≈ 1.66 µM) | 2.2 (≈ 3.32 µM) | – | – | – | – | –
14 | O=C(Nc1ccc(S(=O)(=O)N2CCN(c3cc(C(F)(F)F)cc(Cl)n3)CC2)cc1)c1cccc(CNCCCN(CCO)CCO)c1 [Example 080, 3-[[3-[Bis(2-hydroxyethyl)amino]propylamino]methyl]-N-[4-[4-[6-chloro-4-(trifluoromethyl)-2-pyridyl]piperazin-1-yl]sulfonylphenyl]benzamide] | 1.4 (≈ 2 µM) | 2.9 (≈ 4.15 µM) | – | – | – | – | –
15 | COc1ccc(CNCCCC2CCNCC2)cc1C(=O)Nc1ccc(S(=O)(=O)N2CCN(c3cc(C(F)(F)F)cc(Cl)n3)CC2)cc1 [Example 081, N-[4-[4-[6-chloro-4-(trifluoromethyl)-2-pyridyl]piperazin-1-yl]sulfonylphenyl]-2-methoxy-5-[[3-(4-piperidyl)propylamino]methyl]benzamide] | 1.5 (≈ 2.11 µM) | 2.9 (≈ 4.09 µM) | – | – | – | – | –
16 | NCC12CC1CN(Cc1cccc(C(=O)Nc3ccc(S(=O)(=O)N4CCN(c5cc(C(F)(F)F)cc(Cl)n5)CC4)cc3)c1)C2 (centres unmarked) [Example 082, 3-[[1-(Aminomethyl)-3-azabicyclo[3.1.0]hexan-3-yl]methyl]-N-[4-[4-[6-chloro-4-(trifluoromethyl)-2-pyridyl]piperazin-1-yl]sulfonylphenyl]benzamide] | 0.69 (≈ 1.06 µM) | 1.4 (≈ 2.16 µM) | – | – | – | – | –
17 | O=C1NC(CNCc2cccc(C(=O)Nc3ccc(S(=O)(=O)N4CCN(c5cc(C(F)(F)F)cc(Cl)n5)CC4)cc3)c2)CO1 (centres unmarked) [Example 084, N-[4-[4-[6-chloro-4-(trifluoromethyl)-2-pyridyl]piperazin-1-yl]sulfonylphenyl]-3-[[(2-oxooxazolidin-4-yl)methylamino]methyl]benzamide] | 4.8 (≈ 7.35 µM) | 4.8 (≈ 7.35 µM) | – | – | – | – | –
18 | COc1ccc(CN2CCC3CNCC32)cc1C(=O)Nc1ccc(S(=O)(=O)N2CCN(c3cc(C(F)(F)F)cc(Cl)n3)CC2)cc1 (centres unmarked) [Example 087, 5-(3,3a,4,5,6,6a-Hexahydro-2H-pyrrolo[3,4-b]pyrrol-1-ylmethyl)-N-[4-[4-[6-chloro-4-(trifluoromethyl)-2-pyridyl]piperazin-1-yl]sulfonylphenyl]-2-methoxy-benzamide] | 1.2 (≈ 1.77 µM) | 2.5 (≈ 3.68 µM) | – | – | – | – | –
19 | NCCCNCc1ccccc1C(=O)Nc1ccc(S(=O)(=O)N2CCN(c3cc(C(F)(F)F)cc(Cl)n3)CC2)cc1 [Example 088, 2-[(3-Aminopropylamino)methyl]-N-[4-[4-[6-chloro-4-(trifluoromethyl)-2-pyridyl]piperazin-1-yl]sulfonylphenyl]benzamide] | 1.3 (≈ 2.13 µM) | 2.6 (≈ 4.25 µM) | – | – | – | – | –
20 | CC(=O)N1CCc2cc(S(=O)(=O)N3CCN(c4cc(Cl)cc(C(F)(F)F)c4)CC3)ccc21 [Example F-1, reference compound] | > 24 | > 24 | 14 | – | – | LPS synthesis pathway inhibition activity | antibiotic activity
